The values that follow come from BindingDB's records for doi:10.1021/acs.jmedchem.6b00397 (IQM-CSIC, 2016).

The target in this test is Cannabinoid receptor 2 (Homo sapiens, UniProt P34972). The test can be described thus: Displacement of [3H]-CP55940 from human CB2 receptor expressed in HEK293 cell membranes after 90 mins by liquid scintillation counting method. In general terms: In a radioligand displacement assay an active substance lowers the binding of a labelled ligand.
Sequence of Cannabinoid receptor 2 (P34972 whole entry): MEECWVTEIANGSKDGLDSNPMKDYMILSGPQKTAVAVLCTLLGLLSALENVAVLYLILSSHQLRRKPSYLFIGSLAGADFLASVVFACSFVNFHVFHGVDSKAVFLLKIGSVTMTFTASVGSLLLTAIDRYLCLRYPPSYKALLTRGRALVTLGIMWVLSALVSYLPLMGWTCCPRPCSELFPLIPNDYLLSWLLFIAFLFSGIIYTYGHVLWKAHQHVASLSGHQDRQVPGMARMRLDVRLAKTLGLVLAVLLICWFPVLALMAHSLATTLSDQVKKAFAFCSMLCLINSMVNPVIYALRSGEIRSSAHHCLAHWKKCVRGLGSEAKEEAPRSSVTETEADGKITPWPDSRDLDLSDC
A word on the Ki: it is a dissociation constant, usually derived from enzyme kinetics or from competition with a known ligand. A higher Ki goes with lower affinity. For the compound `CCCCCCC(C)(C)c1cc(O)c2c(c1)OC(C)(C)c1cn(CC)nc1-2`, the Ki was > 40 µM.
As for `CCCCCCC(C)(C)c1cc(O)c2c(c1)OC(C)(C)c1cn(C)nc1-2`, the figure is > 40 µM; as for `CCCCCCC(C)(C)c1cc(O)c2c(c1)OC(C)(C)c1cnn(-c3ccc(Cl)cc3Cl)c1-2`, > 40 µM.
Take `CCCCCCC(C)(C)c1cc(O)c2c(c1)OC(C)(C)c1cnn(CC)c1-2`: the Ki was > 40 µM.
